Source: patent publication US20250214991A1 (Oncopia Therapeutics, Inc. d/b/a/ SK Life Science Labs, priority 2022, published 2025)

Experiments:
IKZF2 [1] = target: T1, IKZF2 (Homo sapiens (Human), UniProt Q96SW2+Q9UKS7); assay: In vitro IKZF2 HiBit Assay (HEK293T Flp-in-HiBiT cells); format: cell-based; conditions: HEK293T Flp-in-HiBiT cells, 6 hrs incubation; for DC50: read-out: IKZF2 HiBit DC50; for Dmax: HEK-293T, read-out: IKZF2 HiBit Dmax (%)
How it was run: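 Remaining tagged Helios was read as lytic HiBiT/LgBiT luminescence normalized to DMSO, yielding binned DC50 and Dmax values. Treatment ran 6 h, with compounds at 11 three-fold doses diluted from 1 mM and 0.1% final DMSO. The cells were HEK293T Flp-in with CRISPR knock-in of HiBiT at the IKZF2 N-terminus.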

IKZF1 = IKZF1 (Homo sapiens (Human), UniProt Q13422+Q96SW2); assay: In vitro IKZF1 HiBit Assay (HEK293T Flp-in-HiBiT-IKZF1 stable cell line); format: cell-based; conditions: HEK293T Flp-in-HiBiT-IKZF1 stable cell line, 6 hrs incubation; for DC50: read-out: IKZF1 HiBit DC50; for Dmax: HEK-293T, read-out: IKZF1 HiBit Dmax (%)
How it was run: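 Degradation was measured as loss of luminescence from the HiBiT-IKZF1 tag after 6 h compound treatment, with 0.1% final DMSO, in stable HEK293T Flp-in cells. Values were normalized to DMSO, giving the 50% degradation concentration and the maximal degradation range.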

IKZF2 [2] = target: T1, IKZF2; assay: In vitro IKZF2 FACS Assay in Jurkat cells; format: cell-based; conditions: 24 hrs; for DC50: half maximal degradation concentration; for Dmax: maximal degradation percentage
Protocol: In vitro IKZF2 FACS Assay
DC50, A: <1 nM; B: 1-10 nM; C: 10-100 nM; D: 100-1000 nM; E: >1000 nM. Dmax, A: >80%; B: 60-80%; C: 40-60%; D: 20-40%; E: <20%.

CRBN/DDB1 = CRBN/DDB1 (Homo sapiens (Human), UniProt Q96SW2); assay: IC50 measurements for binding to CRBN/DDB1 (HTRF); conditions: His tagged CRBN+DDB, Cy5-labeled Thalidomide probe, one hour
How it was run: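 Serially diluted compounds compete with a Cy5-labeled thalidomide tracer (60 nM) for His-tagged CRBN-DDB1 (2 nM), detected via anti-6His Tb cryptate (0.4 nM); buffer HEPES pH 7.5 with TCEP, Brij-35, NaCl, BSA. One-hour room-temperature incubation, HTRF signal read, IC50 by four-parameter curve.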

CRBN/DDB1, sequence (Q96SW2 whole entry, species assumed): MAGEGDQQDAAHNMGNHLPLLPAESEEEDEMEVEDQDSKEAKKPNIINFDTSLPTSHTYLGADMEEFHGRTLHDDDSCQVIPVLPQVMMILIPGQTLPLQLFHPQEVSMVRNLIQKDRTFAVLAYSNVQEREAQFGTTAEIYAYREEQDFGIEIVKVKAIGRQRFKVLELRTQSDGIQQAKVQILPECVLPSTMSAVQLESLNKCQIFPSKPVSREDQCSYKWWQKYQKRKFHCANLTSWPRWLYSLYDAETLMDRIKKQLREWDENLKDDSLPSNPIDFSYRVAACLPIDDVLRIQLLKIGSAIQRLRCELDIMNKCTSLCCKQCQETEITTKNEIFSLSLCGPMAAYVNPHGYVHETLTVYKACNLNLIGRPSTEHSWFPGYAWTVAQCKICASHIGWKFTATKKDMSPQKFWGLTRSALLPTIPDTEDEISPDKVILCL
CRBN/DDB1, sequence (Q16531 whole entry partner, species assumed): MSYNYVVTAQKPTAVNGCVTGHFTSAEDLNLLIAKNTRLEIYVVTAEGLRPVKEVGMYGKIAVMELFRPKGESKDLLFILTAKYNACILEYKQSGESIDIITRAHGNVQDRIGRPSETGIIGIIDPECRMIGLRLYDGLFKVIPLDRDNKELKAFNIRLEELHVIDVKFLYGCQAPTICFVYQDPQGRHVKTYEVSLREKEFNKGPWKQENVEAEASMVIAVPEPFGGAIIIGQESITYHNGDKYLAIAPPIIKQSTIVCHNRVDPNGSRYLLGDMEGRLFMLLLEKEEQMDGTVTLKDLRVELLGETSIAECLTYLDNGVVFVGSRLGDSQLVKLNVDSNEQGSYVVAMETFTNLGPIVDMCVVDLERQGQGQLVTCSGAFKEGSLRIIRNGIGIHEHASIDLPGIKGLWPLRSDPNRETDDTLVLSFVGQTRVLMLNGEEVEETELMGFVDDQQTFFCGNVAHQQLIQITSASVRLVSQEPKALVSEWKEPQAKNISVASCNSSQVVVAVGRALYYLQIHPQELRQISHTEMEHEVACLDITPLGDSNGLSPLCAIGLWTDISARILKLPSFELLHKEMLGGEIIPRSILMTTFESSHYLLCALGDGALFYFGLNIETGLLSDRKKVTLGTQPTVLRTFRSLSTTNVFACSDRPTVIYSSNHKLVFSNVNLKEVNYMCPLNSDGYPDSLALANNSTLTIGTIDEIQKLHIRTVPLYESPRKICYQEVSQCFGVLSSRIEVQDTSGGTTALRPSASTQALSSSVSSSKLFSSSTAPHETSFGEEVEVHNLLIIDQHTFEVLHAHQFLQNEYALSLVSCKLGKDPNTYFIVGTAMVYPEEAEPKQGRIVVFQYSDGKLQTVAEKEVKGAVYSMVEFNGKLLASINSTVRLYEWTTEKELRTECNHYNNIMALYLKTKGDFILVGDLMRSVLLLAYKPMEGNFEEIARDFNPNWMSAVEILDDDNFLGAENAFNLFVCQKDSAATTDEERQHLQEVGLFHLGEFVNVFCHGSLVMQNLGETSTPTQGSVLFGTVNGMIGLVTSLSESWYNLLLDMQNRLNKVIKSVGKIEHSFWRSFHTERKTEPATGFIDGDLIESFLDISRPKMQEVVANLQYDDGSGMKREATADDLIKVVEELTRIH
IKZF1, sequence (Q13422 whole entry): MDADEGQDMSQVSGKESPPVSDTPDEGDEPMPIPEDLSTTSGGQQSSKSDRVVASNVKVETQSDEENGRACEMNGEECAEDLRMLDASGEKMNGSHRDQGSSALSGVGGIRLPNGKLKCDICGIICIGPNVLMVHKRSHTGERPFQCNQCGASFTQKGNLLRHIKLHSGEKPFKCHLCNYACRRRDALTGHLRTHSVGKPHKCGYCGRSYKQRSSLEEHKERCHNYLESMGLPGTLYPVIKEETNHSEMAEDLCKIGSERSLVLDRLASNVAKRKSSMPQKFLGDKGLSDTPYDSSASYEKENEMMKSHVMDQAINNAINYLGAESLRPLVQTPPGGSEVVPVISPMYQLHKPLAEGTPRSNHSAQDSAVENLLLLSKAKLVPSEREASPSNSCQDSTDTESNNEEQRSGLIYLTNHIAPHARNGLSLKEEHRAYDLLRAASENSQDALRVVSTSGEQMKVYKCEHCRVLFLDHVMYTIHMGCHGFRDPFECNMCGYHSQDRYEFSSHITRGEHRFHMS
IKZF1, sequence (Q96SW2 whole entry): as the sequence (Q96SW2 whole entry, species assumed) above
IKZF1, sequence (Q16531 2-1140 partner): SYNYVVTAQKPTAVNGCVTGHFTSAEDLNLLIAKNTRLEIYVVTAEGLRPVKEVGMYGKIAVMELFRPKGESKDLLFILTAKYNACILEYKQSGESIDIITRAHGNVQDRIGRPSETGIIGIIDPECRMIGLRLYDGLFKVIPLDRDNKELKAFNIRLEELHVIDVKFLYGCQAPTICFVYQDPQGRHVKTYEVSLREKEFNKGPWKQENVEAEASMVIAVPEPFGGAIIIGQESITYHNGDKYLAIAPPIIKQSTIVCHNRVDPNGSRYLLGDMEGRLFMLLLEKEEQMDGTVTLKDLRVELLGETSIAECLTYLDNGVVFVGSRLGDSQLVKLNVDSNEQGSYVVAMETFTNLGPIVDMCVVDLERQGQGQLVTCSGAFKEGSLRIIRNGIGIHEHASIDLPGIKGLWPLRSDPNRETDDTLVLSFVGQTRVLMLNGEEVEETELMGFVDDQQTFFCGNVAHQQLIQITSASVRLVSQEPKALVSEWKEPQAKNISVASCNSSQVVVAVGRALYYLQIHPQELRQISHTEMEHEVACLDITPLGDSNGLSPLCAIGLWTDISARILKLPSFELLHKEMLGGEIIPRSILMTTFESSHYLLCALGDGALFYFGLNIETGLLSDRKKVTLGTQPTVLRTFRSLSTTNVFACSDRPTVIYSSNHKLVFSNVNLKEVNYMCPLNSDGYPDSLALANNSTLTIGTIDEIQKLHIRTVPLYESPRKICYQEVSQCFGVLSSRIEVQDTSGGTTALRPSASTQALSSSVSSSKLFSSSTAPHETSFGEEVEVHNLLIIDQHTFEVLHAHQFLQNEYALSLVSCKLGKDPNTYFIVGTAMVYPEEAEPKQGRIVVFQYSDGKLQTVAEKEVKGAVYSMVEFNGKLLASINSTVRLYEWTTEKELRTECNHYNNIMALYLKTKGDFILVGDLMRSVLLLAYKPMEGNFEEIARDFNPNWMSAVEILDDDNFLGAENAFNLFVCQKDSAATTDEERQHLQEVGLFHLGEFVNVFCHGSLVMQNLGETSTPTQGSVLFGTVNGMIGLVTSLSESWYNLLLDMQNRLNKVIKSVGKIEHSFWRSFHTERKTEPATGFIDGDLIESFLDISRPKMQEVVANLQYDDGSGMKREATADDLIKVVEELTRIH
T1 sequence (Q9UKS7 whole entry): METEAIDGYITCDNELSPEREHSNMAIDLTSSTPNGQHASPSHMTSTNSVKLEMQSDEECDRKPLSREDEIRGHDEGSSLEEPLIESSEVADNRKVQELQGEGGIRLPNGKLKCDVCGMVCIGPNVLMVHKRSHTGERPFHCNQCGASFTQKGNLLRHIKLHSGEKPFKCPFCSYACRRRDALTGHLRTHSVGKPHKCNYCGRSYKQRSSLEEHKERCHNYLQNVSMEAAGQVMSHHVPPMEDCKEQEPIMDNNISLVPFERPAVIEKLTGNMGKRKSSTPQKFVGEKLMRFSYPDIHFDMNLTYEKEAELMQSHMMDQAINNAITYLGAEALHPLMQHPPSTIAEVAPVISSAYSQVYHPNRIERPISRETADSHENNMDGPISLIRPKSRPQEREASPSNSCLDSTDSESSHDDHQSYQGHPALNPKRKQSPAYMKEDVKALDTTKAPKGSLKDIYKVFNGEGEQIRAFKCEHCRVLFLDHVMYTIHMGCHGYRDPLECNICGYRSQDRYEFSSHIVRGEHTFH
T1 sequence (Q96SW2 whole entry): as the sequence (Q96SW2 whole entry, species assumed) above
T1 sequence (Q16531 2-1140 partner): as the sequence (Q16531 2-1140 partner) above

Cn1ccc2c(CN3CCC3)cc(-c3ccc4c(c3)CN(C3CCC(=O)NC3=O)C4=O)nc21 (stereo not drawn) [Example 56, 3-(5-(4-(azetidin-1-ylmethyl)-1-methyl-1H-pyrrolo[2,3-b]pyridin-6-yl)-1-oxoisoindolin-2-yl) piperidine-2,6-dione]
DC50 (IKZF2 [1]): < 1 nM
Dmax (IKZF2 [1]): > 80%
DC50 (IKZF1): > 10000 nM
Dmax (IKZF1): 20 to 40%
DC50 (IKZF2 [2]): 1 to 10 nM
Dmax (IKZF2 [2]): 60 to 80%
IC50 (CRBN/DDB1): < 100 nM

O=C1CCC(N2Cc3cc(-c4cc(CN5CC6COCC6C5)c5ccn(C6COC6)c5n4)ccc3C2=O)C(=O)N1 (stereo not drawn) [Example 186, 3-(5-(1-(oxetan-3-yl)-4-((tetrahydro-1H-furo[3,4-c]pyrrol-5 (3H)-yl)methyl)-1H-pyrrolo[2,3-b]pyridin-6-yl)-1-oxoisoindolin-2-yl) piperidine-2,6-dione]
DC50 (IKZF2 [1]): 1 to 10 nM
Dmax (IKZF2 [1]): > 80%
DC50 (IKZF1): > 10000 nM
Dmax (IKZF1): < 20%
DC50 (IKZF2 [2]): 1 to 10 nM
Dmax (IKZF2 [2]): > 80%
IC50 (CRBN/DDB1): 100 to 500 nM

O=C1CCC(N2Cc3cc(-c4cc(CN5CC6COCC(C6)C5)c5cc[nH]c5n4)ccc3C2=O)C(=O)N1 (stereo not drawn) [Example 121, 3-(5-(4-((3-oxa-7-azabicyclo[3.3.1]nonan-7-yl)methyl)-1H-pyrrolo[2,3-b]pyridin-6-yl)-1-oxoisoindolin-2-yl) piperidine-2,6-dio]
DC50 (IKZF2 [1]): 1 to 10 nM
Dmax (IKZF2 [1]): > 80%
DC50 (IKZF1): > 10000 nM
Dmax (IKZF1): < 20%
DC50 (IKZF2 [2]): 10 to 100 nM
Dmax (IKZF2 [2]): > 80%
IC50 (CRBN/DDB1): 1000 to 5000 nM

O=C1CCC(N2Cc3cc(-c4cc(CN5CCCC5)c5nccc(OC6CCC6)c5n4)ccc3C2=O)C(=O)N1 (stereo not drawn) [Example 239, 3-(5-(8-cyclobutoxy-4-(pyrrolidin-1-ylmethyl)-1,5-naphthyridin-2-yl)-1-oxoisoindolin-2-yl) piperidine-2,6-dione]
DC50 (IKZF2 [1]): 1 to 10 nM
Dmax (IKZF2 [1]): 60 to 80%
DC50 (IKZF1): > 10000 nM
Dmax (IKZF1): < 20%
DC50 (IKZF2 [2]): 10 to 100 nM
Dmax (IKZF2 [2]): 60 to 80%
IC50 (CRBN/DDB1): 1000 to 5000 nM

O=C1CCC(N2Cc3cc(-c4cc(CN5CCC(CO)CC5)c5ccn(C6COC6)c5n4)ccc3C2=O)C(=O)N1 (stereo not drawn) [Example 163, 3-(5-(4-((4-(hydroxymethyl)piperidin-1-yl)methyl)-1-(oxetan-3-yl)-1H-pyrrolo[2,3-b]pyridin-6-yl)-1-oxoisoindolin-2-yl) piperidine-2,6-dione]
DC50 (IKZF2 [1]): 1 to 10 nM
Dmax (IKZF2 [1]): 60 to 80%
DC50 (IKZF1): 100 to 1000 nM
Dmax (IKZF1): 20 to 40%
DC50 (IKZF2 [2]): 1 to 10 nM
Dmax (IKZF2 [2]): > 80%
IC50 (CRBN/DDB1): 100 to 500 nM

O=C1CCC(N2Cc3cc(-c4ccc(CN5CCCC5)c5cncn45)ccc3C2=O)C(=O)N1 (stereo not drawn) [Example 54, 3-(1-oxo-5-(8-(pyrrolidin-1-ylmethyl)imidazo[1,5-a]pyridin-5-yl)isoindolin-2-yl) piperidine-2,6-dione]
DC50 (IKZF2 [1]): 1000 to 10000 nM
Dmax (IKZF2 [1]): < 20%
DC50 (IKZF1): > 10000 nM
Dmax (IKZF1): < 20%
DC50 (IKZF2 [2]): < 1 nM
Dmax (IKZF2 [2]): > 80%
IC50 (CRBN/DDB1): 1000 to 5000 nM
